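The compound was tested at five concentrations on cells cultured in 96-well plates, with a 48-hour exposure period. GI50 is the concentration that inhibits growth by half.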 The source made the active and inactive calls. Rule as the data show it: active = GI50 up to about 1.1 µM and inactive = higher.
Tests used:
Assay in all cases: inhibition of tumour cell growth, NCI panel, 48 h
786-0 = tested on: 786-0
A549 = tested on: A549
ACHN = tested on: ACHN
BT-549 = tested on: BT-549
CAKI-1 = tested on: CAKI-1
CCRF-CEM = tested on: CCRF-CEM
COLO 205 = tested on: COLO 205
DU-145 = tested on: DU-145
EKVX = tested on: EKVX
HCT-116 = tested on: HCT-116
HCT-15 = tested on: HCT-15
HL-60 = tested on: HL-60
HOP-62 = tested on: HOP-62
HT-29 = tested on: HT-29
Hs-578T = tested on: Hs-578T
IGROV-1 = tested on: IGROV-1
K562 = tested on: K562
KM12 = tested on: KM12
LOX IMVI = tested on: LOX IMVI
M14 = tested on: M14
MCF7 = tested on: MCF7
MDA-MB-231 = tested on: MDA-MB-231
MDA-MB-435 = tested on: MDA-MB-435
MDA-N = tested on: MDA-N
MOLT-4 = tested on: MOLT-4
Malme-3M = tested on: Malme-3M
NCI-H23 = tested on: NCI-H23
NCI-H460 = tested on: NCI-H460
NCI-H522 = tested on: NCI-H522
NCI/ADR-RES = tested on: NCI/ADR-RES
OVCAR-3 = tested on: OVCAR-3
OVCAR-4 = tested on: OVCAR-4
OVCAR-5 = tested on: OVCAR-5
OVCAR-8 = tested on: OVCAR-8
PC-3 = tested on: PC-3
RPMI-8226 = tested on: RPMI-8226
SF-268 = tested on: SF-268
SF-295 = tested on: SF-295
SK-MEL-28 = tested on: SK-MEL-28
SK-MEL-5 = tested on: SK-MEL-5
SK-OV-3 = tested on: SK-OV-3
SN12C = tested on: SN12C
SNB-19 = tested on: SNB-19
SR = tested on: SR
T47D = tested on: T47D
TK-10 = tested on: TK-10
U-251 = tested on: U-251
UACC-257 = tested on: UACC-257
UACC-62 = tested on: UACC-62
UO-31 = tested on: UO-31
HCC 2998 = tested on: HCC 2998
HOP-92 = tested on: HOP-92
NCI-H226 = tested on: NCI-H226
SF-539 = tested on: SF-539
SK-MEL-2 = tested on: SK-MEL-2
SNB-75 = tested on: SNB-75
SW-620 = tested on: SW-620

Compound: OC(c1ccccc1)(c1ccccc1)c1nccc2ccccc12
- GI50 (786-0): 55 µM (inactive)
- GI50 (A549): 36.9 µM (inactive)
- GI50 (ACHN): 37.6 µM (inactive)
- GI50 (BT-549): 14.3 µM (inactive)
- GI50 (CAKI-1): 20.1 µM (inactive)
- GI50 (CCRF-CEM): 23.6 µM (inactive)
- GI50 (COLO 205): 28.1 µM (inactive)
- GI50 (DU-145): 41.7 µM (inactive)
- GI50 (EKVX): 20.7 µM (inactive)
- GI50 (HCT-116): 27.9 µM (inactive)
- GI50 (HCT-15): 37.3 µM
- GI50 (HL-60): 32.3 µM (inactive)
- GI50 (HOP-62): 18.9 µM (inactive)
- GI50 (HT-29): 26.8 µM (inactive)
- GI50 (Hs-578T): 28.5 µM (inactive)
- GI50 (IGROV-1): 40 µM (inactive)
- GI50 (K562): > 10 µM (inactive)
- GI50 (KM12): 35.9 µM (inactive)
- GI50 (LOX IMVI): 17.6 µM (inactive)
- GI50 (M14): 20.8 µM (inactive)
- GI50 (MCF7): 35.2 µM (inactive)
- GI50 (MDA-MB-231): 37.7 µM (inactive)
- GI50 (MDA-MB-435): 30.8 µM (inactive)
- GI50 (MDA-N): 30.1 µM (inactive)
- GI50 (MOLT-4): 16.7 µM (inactive)
- GI50 (Malme-3M): 30 µM (inactive)
- GI50 (NCI-H23): 20.8 µM (inactive)
- GI50 (NCI-H460): 17.3 µM (inactive)
- GI50 (NCI-H522): 16.7 µM (inactive)
- GI50 (NCI/ADR-RES): 34.6 µM (inactive)
- GI50 (OVCAR-3): 17.2 µM (inactive)
- GI50 (OVCAR-4): 31.6 µM (inactive)
- GI50 (OVCAR-5): 31.7 µM (inactive)
- GI50 (OVCAR-8): 37.8 µM (inactive)
- GI50 (PC-3): 22.2 µM (inactive)
- GI50 (RPMI-8226): 38.3 µM (inactive)
- GI50 (SF-268): 44.2 µM (inactive)
- GI50 (SF-295): 15.8 µM (inactive)
- GI50 (SK-MEL-28): 22.6 µM (inactive)
- GI50 (SK-MEL-5): 14.1 µM (inactive)
- GI50 (SK-OV-3): 22.5 µM (inactive)
- GI50 (SN12C): 44.5 µM (inactive)
- GI50 (SNB-19): 27.9 µM (inactive)
- GI50 (SR): 37.8 µM (inactive)
- GI50 (T47D): 27.3 µM (inactive)
- GI50 (TK-10): 12.9 µM (inactive)
- GI50 (U-251): 29.3 µM (inactive)
- GI50 (UACC-257): 31 µM (inactive)
- GI50 (UACC-62): 21.5 µM (inactive)
- GI50 (UO-31): 17.8 µM (inactive)

Compound: CCOC(=O)COc1c(OC)cc(C2C3=C(COC3=O)Oc3cc4c(cc32)OCO4)cc1OC (configuration not stated)
- GI50 (786-0): 2.77 µM (inactive)
- GI50 (A549): 4.45 µM (inactive)
- GI50 (ACHN): 6.52 µM (inactive)
- GI50 (BT-549): 21.9 µM (inactive)
- GI50 (CAKI-1): 3.41 µM (inactive)
- GI50 (CCRF-CEM): 0.229 µM (active)
- GI50 (COLO 205): 0.991 µM (active)
- GI50 (DU-145): 4.5 µM (inactive)
- GI50 (EKVX): 4.02 µM (inactive)
- GI50 (HCC 2998): 14.5 µM (inactive)
- GI50 (HCT-116): 0.773 µM (active)
- GI50 (HCT-15): 0.502 µM
- GI50 (HL-60): 0.138 µM (active)
- GI50 (HOP-62): 2.16 µM (inactive)
- GI50 (HOP-92): 14.6 µM (inactive)
- GI50 (HT-29): 0.927 µM (active)
- GI50 (Hs-578T): 4.51 µM (inactive)
- GI50 (IGROV-1): 1.83 µM (inactive)
- GI50 (K562): 0.155 µM (active)
- GI50 (KM12): 0.304 µM (active)
- GI50 (LOX IMVI): 0.625 µM (active)
- GI50 (M14): 3.03 µM (inactive)
- GI50 (MCF7): 3.27 µM (inactive)
- GI50 (MDA-MB-231): 3.03 µM (inactive)
- GI50 (MDA-MB-435): 0.0635 µM (active)
- GI50 (MDA-N): 0.384 µM (active)
- GI50 (MOLT-4): 0.417 µM (active)
- GI50 (Malme-3M): 57.8 µM (inactive)
- GI50 (NCI-H226): > 54 µM (inactive)
- GI50 (NCI-H23): 0.646 µM (active)
- GI50 (NCI-H460): 7.94 µM (inactive)
- GI50 (NCI-H522): 0.479 µM (active)
- GI50 (NCI/ADR-RES): 3.37 µM (inactive)
- GI50 (OVCAR-3): 0.528 µM (active)
- GI50 (OVCAR-4): 2.46 µM (inactive)
- GI50 (OVCAR-5): > 84.1 µM (inactive)
- GI50 (OVCAR-8): 5.69 µM (inactive)
- GI50 (PC-3): 1.87 µM (inactive)
- GI50 (RPMI-8226): 0.255 µM (active)
- GI50 (SF-268): 13.5 µM (inactive)
- GI50 (SF-295): 0.9 µM (active)
- GI50 (SF-539): 3.57 µM (inactive)
- GI50 (SK-MEL-28): 0.614 µM (active)
- GI50 (SK-MEL-2): 8.75 µM (inactive)
- GI50 (SK-MEL-5): 0.244 µM (active)
- GI50 (SK-OV-3): 3.17 µM (inactive)
- GI50 (SN12C): 1.72 µM (inactive)
- GI50 (SNB-19): 13 µM (inactive)
- GI50 (SNB-75): 4.62 µM (inactive)
- GI50 (SR): 0.995 µM (active)
- GI50 (SW-620): 0.476 µM (active)
- GI50 (T47D): 2.54 µM (inactive)
- GI50 (TK-10): 6.18 µM (inactive)
- GI50 (U-251): 0.499 µM (active)
- GI50 (UACC-257): 9.77 µM (inactive)
- GI50 (UACC-62): 1.69 µM (inactive)
- GI50 (UO-31): 13.4 µM (inactive)

Reference: ChEMBL document CHEMBL1201862, “PubChem BioAssay data set” (2004)
